Measured values: patent publication US20060217418A1, “Substituted alkyl amido piperidines” (priority 2001, published 2006)

What follows are molecules tested against T1, rat MCH1 receptor (Rattus norvegicus, UniProt P97639) (assay: Radioligand binding assay at cloned rat MCH1 receptor ([3H]Compound A)). Settings: cloned rat MCH1, Peakr293 cell membranes, 0.08 nM [3H]Compound A, 25° C., 90 minutes; read-out: Ki(MCH-1).
T1 construct: operatively linked to DNA encoding the rat MCH1 receptor so as to permit expression thereof; expressed in transfected cells; host or cells: Human embryonic kidney Peak rapid 293 (Peakr293) cells, transient calcium phosphate transfection, membranes
T1 sequence (P97639 whole entry): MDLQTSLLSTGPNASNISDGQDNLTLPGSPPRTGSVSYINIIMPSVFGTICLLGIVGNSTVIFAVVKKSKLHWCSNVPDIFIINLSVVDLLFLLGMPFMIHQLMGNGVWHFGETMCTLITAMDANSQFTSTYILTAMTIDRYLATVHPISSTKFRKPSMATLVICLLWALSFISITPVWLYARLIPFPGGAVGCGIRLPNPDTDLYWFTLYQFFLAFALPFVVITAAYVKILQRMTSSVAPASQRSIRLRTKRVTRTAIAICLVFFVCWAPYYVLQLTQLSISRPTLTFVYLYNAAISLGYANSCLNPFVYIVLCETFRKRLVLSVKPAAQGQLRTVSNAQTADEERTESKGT

First: CC(C)C(=O)Nc1ccc(F)c(C2CCN(CCCNC(=O)C(C)(C)c3ccc(Cl)cc3)CC2)c1 [Example 127]
Second: CC(C)C(=O)Nc1cc(C2CCN(CCCNC(=O)C(C)(C)c3ccc(Cl)cc3)CC2)ccc1F [Example 49]
The Ki of the first is 12-fold higher: 175 nM for the first, 14.8 nM for the second.

Going from `CC(C)C(=O)Nc1cccc(C2CCN(CCCNC(=O)C3(c4ccc(Cl)cc4)CCCCC3)CC2)n1` [Example 67, 1-(4-CHLOROPHENYL)-N-(3-{4-[6-(ISOBUTYRYLAMINO)-2-PYRIDINYL]-1-PIPERIDINYL} PROPYL)CYCLOHEXANECARBOXAMIDE] to `CC(C)C(=O)Nc1cccc(C2CCN(CCCNC(=O)C3(c4ccc(Cl)cc4)CCC3)CC2)n1` [Example 73, 1-(4-CHLOROPHENYL)-N-(3-{4-[6-(ISOBUTYRYLAMINO)-2-PYRIDINYL]-1-PIPERIDINYL} PROPYL)CYCLOBUTANECARBOXAMIDE], the Ki rises from 9.9 nM to 32.4 nM (3.3-fold). The first binds more tightly here.

First: CCC(=O)Nc1cccc(C2CCN(CCCNC(=O)C(Br)c3ccccc3)CC2)c1 (stereo not drawn) [Example 10, N-[3-(1-{3-[(2-BROMO-2-PHENYLACETYL)AMINO]PROPYL}-4-PIPERIDINYL) PHENYL]PROPANAMIDE]
Second: CCC(=O)Nc1cccc(C2CCN(CCCNC(=O)C(c3ccccc3)c3c(C)cc(C)cc3C)CC2)c1 (stereo not drawn) [Example 14, N-[3-(1-{3-[(2-MESITYL-2-PHENYLACETYL)AMINO]PROPYL}-4-PIPERIDINYL)PHENYL] PROPANAMIDE]
The Ki of the first is 31-fold higher: 83 nM for the first, 2.7 nM for the second.

First: CCCC(=O)Nc1ccc(F)c(C2CCN(CCCNC(=O)C(c3ccccc3)c3ccccc3)CC2)c1 [Example 25]
Second: CCCC(=O)Nc1ccc(C2CCN(CCCNC(=O)C(c3ccccc3)c3ccccc3)CC2)cc1 [Example 149]
The Ki of the first is 220-fold lower: 2.1 nM for the first, 467 nM for the second.

Going from `CCCC(=O)Nc1ccc(OC)c(C2CCN(CCCNC(=O)C(c3ccc(F)cc3)c3ccc(F)cc3)CC2)c1` [Example 26] to `O=C(Nc1cccc(C2CCN(CCCNC(=O)C(c3ccc(F)cc3)c3ccc(F)cc3)CC2)c1)C1CC1` [Example 120, N-{3-[1-(3-{[2,2-BIS(4-FLUOROPHENYL)ACETYL]AMINO}PROPYL)-4-PIPERIDINYL] PHENYL}CYCLOPROPANECARBOXAMIDE], the Ki falls from 18.7 nM to 0.4 nM (47-fold). The second binds more tightly here.

First: CC(=O)Nc1cccc(C2CCN(CCCNC(=O)C3(c4ccc(Cl)cc4)CC3)CC2)c1 [Example 71, N-(3-{4-[3-(ACETYLAMINO)PHENYL]-1-PIPERIDINYL}PROPYL)-1-(4-CHLORO PHENYL) CYCLOPROPANECARBOXAMIDE]
Second: CC(=O)Nc1cccc(C2CCN(CCCNC(=O)C3(c4ccc(Cl)cc4)CCCCC3)CC2)c1 [Example 75, N-(3-{4-[3-(ACETYLAMINO)PHENYL]-1-PIPERIDINYL}PROPYL)-1-(4-CHLOROPHENYL) CYCLOHEXANECARBOXAMIDE]
The Ki of the first is 12-fold higher: 54.5 nM for the first, 4.7 nM for the second. The second binds more tightly here.

Compared with `CC(C)(C)C(=O)Nc1cccc(C2CCN(CCCNC(=O)C(c3ccccc3)c3ccccc3)CC2)c1` [Example 18], `CC(C)CC(=O)Nc1cccc(C2CCN(CCCNC(=O)C(c3ccccc3)c3ccccc3)CC2)c1` [Example 13] is 2.7-fold lower in Ki: 31.5 nM for the first, 11.8 nM for the second. The second binds more tightly here.

Going from `CC(C)C(=O)Nc1cccc(C2CCN(CCCNC(=O)C3(c4ccc(F)cc4Cl)CCCCC3)CC2)c1` [Example 138] to `CC(C)C(=O)Nc1ccc(F)c(C2CCN(CCCNC(=O)C3(c4ccc(F)cc4Cl)CCCCC3)CC2)c1` [Example 133, 1-(2-CHLORO-4-FLUOROPHENYL)-N-(3-{4-[2-FLUORO-5-(ISOBUTYRYLAMINO) PHENYL]-1-PIPERIDINYL}PROPYL)CYCLO HEXANECARBOXAMIDE], the Ki falls from 10.2 nM to 5.9 nM (1.7-fold).

First: CC(=O)Nc1cccc(C2CCN(CCCNC(=O)C3(c4ccc(F)cc4)CCCCC3)CC2)c1 [Example 70, N-(3-{4-[3-(ACETYLAMINO)PHENYL]-1-PIPERIDINYL}PROPYL)-1-(4-FLUORO PHENYL)CYCLOHEXANECARBOXAMIDE]
Second: CC(C)C(=O)Nc1cccc(C2CCN(CCCNC(=O)C3(c4ccc(F)cc4)CCCC3)CC2)c1 [Example 36, 1-(4-FLUOROPHENYL)-N-(3-{4-[3-(ISOBUTYRYLAMINO)PHENYL]-1-PIPERIDINYL} PROPYL)CYCLOPENTANECARBOXAMIDE]
The Ki of the first is 2.4-fold higher: 26.7 nM for the first, 11 nM for the second.

Compared with `Cc1ccc(NC(=O)C(C)C)cc1C1CCN(CCCNC(=O)Cc2ccc(F)cc2)CC1` [Example 175, N-{3-[1-(3-{[(4-fluorophenyl)acetyl]amino}propyl)-4-piperidinyl]-4-methylphenyl}-2-methyl propanamide], `Cc1ccc(NC(=O)C(C)C)cc1C1CCN(CCCNC(=O)[C@@H](C)c2ccc(F)cc2)CC1` [Example 168, (2S)-2-(4-fluorophenyl)-N-(3-{4-[5-(isobutyrylamino)-2-methylphenyl]-1-piperidinyl}propyl) propanamide] is 2-fold lower in Ki: 24.7 nM for the first, 12.1 nM for the second. The second binds more tightly here.

Compared with `CC(C)C(=O)Nc1cccc(C2CCN(CCCNC(=O)C3(c4ccc(Cl)cc4)CCC3)CC2)c1` [Example 43, 1-(4-CHLOROPHENYL)-N-(3-{4-[3-(ISOBUTYRYLAMINO)PHENYL]-1-PIPERIDINYL} PROPYL)CYCLOBUTANECARBOXAMIDE], `CC(C)C(=O)Nc1cccc(C2CCN(CCCNC(=O)C3(c4ccc(Cl)cc4)CCCCC3)CC2)c1` [Example 45, 1-(4-CHLOROPHENYL)-N-(3-{4-[3-(ISOBUTYRYLAMINO)PHENYL]-1-PIPERIDINYL} PROPYL)CYCLOHEXANECARBOXAMIDE] is 3.4-fold lower in Ki: 13.7 nM for the first, 4 nM for the second. The second binds more tightly here.

Compared with `CC(C)C(=O)Nc1cccc(C2CCN(CCCNC(=O)C(C)c3ccc(F)cc3)CC2)c1` (stereo not drawn) [Example 42, 2-(4-FLUOROPHENYL)-N-(3-{4-[3-(ISOBUTYRYLAMINO)PHENYL]-1-PIPERIDINYL} PROPYL)PROPANAMIDE], `Cc1ccc(NC(=O)C(C)C)cc1C1CCN(CCCNC(=O)C(C)c2ccc(Cl)cc2)CC1` (stereo not drawn) [Example 100] is 6.9-fold lower in Ki: 34.3 nM for the first, 5 nM for the second. The second binds more tightly here.

Going from `Cc1ccc(C(C(=O)NCCCN2CCC(c3cccc(NC(=O)OC(C)C)c3)CC2)c2ccc(C)cc2)cc1` [Example 145, ISOPROPYL 3-[1-(3-{[BIS(4-METHYLPHENYL)ACETYL]AMINO}PROPYL)-4-PIPERIDINYL]PHENYLCARBAMATE] to `CC(C)C(=O)Nc1cccc(C2CCN(CCCNC(=O)C(c3ccc(Cl)cc3)c3ccc(Cl)cc3)CC2)c1` [Example 2, N-{3-[1-(3-{[BIS(4-CHLOROPHENYL)ACETYL]AMINO}PROPYL)-4-PIPERIDINYL] PHENYL}-2-METHYLPROPANAMIDE], the Ki falls from 26.9 nM to 2.4 nM (11-fold). The second binds more tightly here.

Going from `CC(C)C(=O)Nc1ccc(F)c(C2CCN(CCCNC(=O)C3(c4ccc(F)cc4)CCCC3)CC2)c1` [Example 129] to `Cc1ccc(NC(=O)C(C)C)cc1C1CCN(CCCNC(=O)C2(c3ccc(F)cc3Cl)CCCCC2)CC1` [Example 134], the Ki falls from 4.5 nM to 2.4 nM (1.9-fold).

Compared with `O=C(Nc1cccc(C2CCN(CCCNC(=O)C(c3ccccc3)(c3ccccc3)c3ccccc3)CC2)c1)C1CC1` [Example 114], `CC(=O)Nc1cccc(C2CCN(CCCNC(=O)C(C)(c3ccccc3)c3ccccc3)CC2)c1` [Example 103, N-(3-{4-[3-(ACETYLAMINO)PHENYL]-1-PIPERIDINYL}PROPYL)-2,2-DIPHENYL PROPANAMIDE] is 2-fold higher in Ki: 4 nM for the first, 8 nM for the second. The first binds more tightly here.

Compared with `O=C(Nc1cccc(C2CCN(CCCNC(=O)C3(c4ccc(F)cc4)CCCC3)CC2)c1)C1CC1` [Example 121, N-[3-(4-{3-[(CYCLOPROPYLCARBONYL)AMINO]PHENYL}-1-PIPERIDINYL) PROPYL]-1-(4-FLUOROPHENYL)CYCLOPENTANECARBOXAMIDE], `CCC(=O)Nc1cccc(C2CCN(CCCNC(=O)C3(c4ccc(Cl)cc4)CCC3)CC2)c1` [Example 58, 1-(4-CHLOROPHENYL)-N-(3-{4-[3-PROPIONYLAMINO)PHENYL]-1-PIPERIDINYL} PROPYL)CYCLOBUTANECARBOXAMIDE] is 4.5-fold higher in Ki: 10.2 nM for the first, 45.9 nM for the second. The first binds more tightly here.

Going from `O=C(Nc1cccc(C2CCN(CCCNC(=O)C(c3ccccc3)c3ccccc3)CC2)c1)OCc1ccccc1` [Example 140, Benzyl 3-(1-{3-[(Diphenylacetyl)Amino]Propyl}-4-Piperidinyl)Phenylcarbamate] to `O=C(Nc1cccc(C2CCN(CCCNC(=O)C(c3ccccc3)c3ccccc3)CC2)c1)C1CC1` [Example 17], the Ki falls from 180 nM to 1.8 nM (100-fold). The second binds more tightly here.

Compared with `COC(C(=O)NCCCN1CCC(c2cccc(NC(=O)C(C)C)c2)CC1)c1ccc(Cl)c(Cl)c1` (stereo not drawn) [Example 39], `Cc1ccc(NC(=O)C(C)C)cc1C1CCN(CCCNC(=O)C(O)c2ccc(F)c(F)c2)CC1` (stereo not drawn) [Example 153, N-{3-[1-(3-{[(3,4-difluorophenyl)(hydroxy)acetyl]amino}propyl)-4-piperdinyl]-4-methylphenyl}-2-methylpropanamide] is 1.6-fold lower in Ki: 32.2 nM for the first, 20.3 nM for the second.

Going from `CCCC(=O)Nc1cc(C2CCN(CCCNC(=O)C(c3ccc(C)cc3)c3ccc(C)cc3)CC2)ccc1F` [Example 109] to `CC(C)C(=O)Nc1ccc(C2CCN(CCCNC(=O)C(c3ccccc3)c3ccccc3)CC2)cc1` [Example 148], the Ki rises from 4.7 nM to 144 nM (31-fold).

`CCC(=O)Nc1cccc(C2CCN(CCCNC(=O)C(C)(C)c3ccc(Cl)cc3)CC2)c1` [Example 7] and `CC(C)(C(=O)NCCCN1CCC(c2cccc(NC(=O)C3CC3)c2)CC1)c1ccc(Cl)cc1` [Example 115] are within 1.5-fold of each other in Ki: 7.9 nM for the first, 6.9 nM for the second.

Compared with `CCC(=O)Nc1cccc(C2CCN(CCCNC(=O)C(CC)(c3ccccc3)c3ccccc3)CC2)c1` [Example 15, 2,2-DIPHENYL-N-(3-{4-[3-(PROPIONYLAMINO)PHENYL]-1-PIPERIDINYL}PROPYL) BUTANAMIDE], `CCC(C(=O)NCCCN1CCC(c2cccc(NC(=O)C(C)C)c2)CC1)(c1ccccc1)c1ccccc1` [Example 12] is 1.6-fold higher in Ki: 8.9 nM for the first, 13.9 nM for the second. The first binds more tightly here.

Compared with `CC[C@@H](C(=O)NCCCN1CCC(c2cc(NC(=O)C(C)C)ccc2C)CC1)c1ccccc1` [Example 162, (2R)-N-(3-{4-[5-(isobutyrylamino)-2-methylphenyl]-1-piperidinyl}propyl)-2-phenylbutan amide], `CC(C)C(=O)Nc1cccc(C2CCN(CCCNC(=O)C3(c4ccc(Cl)cc4)CC3)CC2)n1` [Example 76, 1-(4-CHLOROPHENYL)-N-(3-{4-[6-(ISOBUTYRYLAMINO)-2-PYRIDINYL]-1-PIPERIDINYL} PROPYL)CYCLOPROPANECARBOXAMIDE] is 5.6-fold higher in Ki: 8.6 nM for the first, 48 nM for the second. The first binds more tightly here.

`CCCC(=O)Nc1cccc(C2CCN(CCCNC(=O)C(C)(c3ccccc3)c3ccccc3)CC2)c1` [Example 98, N-[3-(1-{3-[(2,2-DIPHENYLPROPANOYL)AMINO]PROPYL}-4-PIPERIDINYL)PHENYL] BUTANAMIDE] was tested, and the Ki was 4.3 nM.
